Measured values taken from patent US10174033B2, “N6-substituted adenosine derivatives and N6-substituted adenine derivatives and uses thereof” (INSTITUTE OF MATERIA MEDICA, CHINESE ACADEMY OF MEDICAL …, priority 2009, dated 2019).

Test system: male ICR-mice
Test: Potentiation of sodium pentobarbital sleeping time test
Format: in vivo
Experimental: Effects of N^6-substituted adenosine derivatives and/or N^6-substituted adenine derivatives on sodium pentobarbital-induced sleeping time in mice.
Name of Experiment: Potentiation of sodium pentobarbital sleeping time test.
Method of Experiment: Groups of 8-10 male ICR-mice with an average weight of 18-22 g were used. They were dosed orally or i.p. with the test compound or the vehicle. Thirty min after i.p. injection or 60 min after oral dosing 38 mg/kg sodium pentobarbital were injected intravenously. The latency and duration of sleep (loss of righting reflex) were recorded. The percentage of prolongation of sleeping time was calculated as: [(sleeping time of experimental group)−(sleeping time of control group)]/(sleeping time of control group)×100%.

[1] = oral, 5 mg/kg, 38 mg/kg sodium pentobarbital 60 min later
[2] = intraperitoneal, 1 mg/kg, 38 mg/kg sodium pentobarbital 30 min later

Compound	Sleep prolonging rate (%) [1] [%]	further results
CCC[C@@H](Nc1ncnc2c1ncn2[C@@H]1O[C@H](CO)C(O)C1O)c1ccccc1 (stereo partly drawn) [Example 89, N^6-[(R)-(phenyl)-butyl]-adenosine]	163	
CCOC(=O)[C@H](Cc1ccc(O)cc1)Nc1ncnc2c1ncn2[C@@H]1O[C@H](CO)C(O)C1O (stereo partly shown) [Example 109, N-(6-adenosine)-(L)-tyrosine ethyl ester]	36	
CC[C@@H](Nc1ncnc2c1ncn2C1CCCO1)c1ccccc1 (stereo partly drawn) [Example 146, N^6-[(R)-1-(phenyl)-propyl]-N^9-(tetrahydrofuran-2-yl)-adenine]	2	
CCCOC[C@H]1O[C@@H](n2cnc3c(N[C@H](CC)c4ccccc4)ncnc32)C(O)C1O (stereo partly drawn) [Example 86, N^6-[(R)-1-(phenyl)-propyl]-adenosine-5′-propyl ether]	318	
CCCOC[C@H]1O[C@@H](n2cnc3c(N[C@@H](CC)c4ccccc4)ncnc32)C(O)C1O (stereo partly drawn) [Example 83, N^6-[(S)-1-(phenyl)-propyl]-adenosine-5′-propyl ether]	4	
CC[C@H](Nc1ncnc2c1ncn2[C@@H]1O[C@H](COC(C)=O)C(OC(C)=O)C1OC(C)=O)c1ccccc1 (stereo partly drawn) [Example 79, N^6-[(S)-1-(phenyl)-propyl]-adenosine-2′,3′,5′-triacetate]	41	
Cc1ccc(CNc2ncnc3c2ncn3[C@@H]2O[C@H](CO)[C@@H](O)[C@H]2O)cc1 [Example 4, N^6-(p-methylbenzyl)-adenosine]		Sleep prolonging rate (%) [2]: 51%
OC[C@H]1O[C@@H](n2cnc3c(NC(c4ccccc4)C4CCCCC4)ncnc32)C(O)C1O (mixture of isomers) [Example 93, N^6-[(±)-1-(cyclohexylphenyl)-methyl]-adenosine]	17	
Cc1cccc(CNc2ncnc3c2ncn3[C@@H]2O[C@H](CO)[C@@H](O)[C@H]2O)c1 [Example 5, N^6-(m-methylbenzyl)-adenosine]		Sleep prolonging rate (%) [2]: 84%
Cc1ccc(CNc2ncnc3c2ncn3[C@H]2C[C@H](O)[C@@H](CO)O2)cc1 [Example 151, N^6-(p-methylbenzyl)-2′-deoxy-adenosine]	34	
C[C@@H](Nc1ncnc2[nH]cnc12)c1ccccc1 [Example 142, N^6-[(R)-1-(phenyl)-ethyl]-adenine]	21	
CCCC(=O)OCC1OC(n2cnc3c(NCc4ccc(OC(=O)CCC)c(OC)c4)ncnc32)C2OC(C)(C)OC12 (stereo not shown) [N^6-(3-methoxy-4-butanoyloxy-benzyl)-2′,3′-O-isopropylidene-adenosine-5′-butyrate]	21	
COc1ccc([C@@H](C)Nc2ncnc3c2ncn3[C@@H]2O[C@H](CO)[C@@H](O)[C@H]2O)cc1 [Example 62, N^6-[(R)-1-(4-methoxyphenyl)-ethyl]-adenosine]	66	
CC(=O)OC[C@H]1O[C@@H](n2cnc3c(NCc4ccc(C)cc4)ncnc32)C[C@H]1OC(C)=O [Example 150, N^6-(p-methylbenzyl)-2′-deoxy-3′,5′-diacetyl adenosine]	9	
CCOC(=O)[C@@H](Cc1ccc(O)cc1)Nc1ncnc2c1ncn2[C@@H]1O[C@H](CO)C(O)C1O (stereo partly shown) [Example 108, N-(6-adenosine)-(D)-tyrosine ethyl ester]	32	
OC[C@H]1O[C@@H](n2cnc3c(N[C@H](c4ccccc4)[C@@H](O)c4ccccc4)ncnc32)C(O)C1O (stereo partly drawn) [Example 99, N^6-{(1S,2R)-[2-hydroxy-(1,2-diphenyl)]-ethyl}-adenosine]	46	
COc1ccc2c(c1)CCCC2Nc1ncnc2c1ncn2[C@@H]1O[C@H](CO)[C@@H](O)[C@H]1O (mixture of isomers) [Example 96, N^6-[(±)-(6-methoxy-1,2,3,4-tetrahydro-naphthalene-1-yl)]-adenosine]	170	
CCN(CCO)c1ncnc2c1ncn2[C@@H]1O[C@H](CO)[C@@H](O)[C@H]1O [Example 139, N^6-ethyl-N^6-(2-hydroxyethyl)-adenosine]	5	
CCCCCCCC(=O)OCC1OC(n2cnc3c(NCc4ccc5c(c4)OCO5)ncnc32)C2OC(C)(C)OC12 (stereo not shown) [N^6-(3,4-methylenedioxybenzyl)-2′,3′-O-isopropylidene-adenosine-5′-caprylate]	4	
N^6-[(S)-1-(phenyl)-propyl]-adenosine-5′-decanoic ether [Example 84]	4	
OC[C@H]1O[C@@H](n2cnc3c(NC4CCCc5c(O)cccc54)ncnc32)[C@H](O)[C@@H]1O (mixture of isomers) [Example 97, N^6-[(±)-(5-hydroxy-1,2,3,4-tetrahydro-naphthalene-1-yl)]-adenosine]	39	

Compound	Sleep prolonging rate (%) [1] [%]	further results
O=C(O)[C@H](Cc1c[nH]c2ccccc12)Nc1ncnc2c1ncn2[C@@H]1O[C@H](CO)C(O)C1O (stereo partly shown) [Example 112, N-(6-adenosine)-(D)-tryptophan]		Sleep prolonging rate (%) (intraperitoneal, 5 mg/kg, 38 mg/kg sodium pentobarbital 30 min later): 89%
COc1ccc(CCC(=O)OC[C@H]2O[C@@H](n3cnc4c(NC(C)c5cc(OC)c(OC)c(OC)c5)ncnc43)C(O)C2O)cc1 (mixture of isomers) [Example 54, N^6-[(±)-1-(3,4,5-trimethoxyphenyl)-ethyl]-adenosine-5′-p-methoxy-phenyl propionate]	76	
CCCC(Nc1ncnc2c1ncn2[C@@H]1O[C@H](CO)[C@@H](O)[C@H]1O)c1ccccc1 (mixture of isomers) [Example 87, N^6-[(±)-1-(phenyl)-butyl]-adenosine]	57	
OC[C@H]1O[C@@H](n2cnc3c(NC(c4ccccc4)c4ccccc4)ncnc32)[C@H](O)[C@@H]1O [Example 95, N^6-(diphenylmethyl)-adenosine]	16	
CCCC(Nc1ncnc2c1ncn2[C@@H]1O[C@H](CO)[C@@H](O)[C@H]1O)c1ccc(OC)cc1 (mixture of isomers) [Example 88, N^6-[(±)-1-(4-methoxyphenyl)-butyl]-adenosine]	80	
C[C@@H](Nc1ncnc2c1ncn2[C@@H]1O[C@H](CO)[C@@H](O)[C@H]1O)c1ccc(F)cc1 [Example 70, N^6-[(R)-1-(4-fluorophenyl)-ethyl]-adenosine]	136	
C[C@H]([C@H](O)c1ccccc1)N(C)c1ncnc2c1ncn2[C@@H]1O[C@H](CO)C(O)C1O (stereo partly drawn) [Example 136, N^6-methyl-N^6-[2-(1R,2R)-(1-hydroxy-1-phenyl)-propyl]-adenosine]	44	
Nc1ccc(CNc2ncnc3c2ncn3[C@@H]2O[C@H](CO)[C@@H](O)[C@H]2O)cc1 [Example 6, N^6-(p-aminobenzyl)-adenosine]	171	Sleep prolonging rate (%) [2]: 165%
CC[C@@H](Nc1ncnc2c1ncn2[C@@H]1O[C@H](COc2ccccc2[N+](=O)[O-])C(O)[C@@H]1O)c1ccccc1 (stereo partly drawn) [Example 85, N^6-[(R)-1-(phenyl)-propyl]-adenosine-5′-o-nitrophenyl ether]	87	
CCOC(=O)[C@@H](Cc1c[nH]c2ccccc12)Nc1ncnc2c1ncn2[C@@H]1O[C@H](CO)C(O)C1O (stereo partly shown) [Example 114, N-(6-adenosine)-(D)-tryptophan ethyl ester]	16	
C[C@H](Nc1ncnc2c1ncn2[C@@H]1O[C@H](CO)[C@@H](O)[C@H]1O)c1ccc(Cl)cc1 [Example 69, N^6-[(S)-1-(4-chlorophenyl)-ethyl]-adenosine]	33	
CC[C@@H](Nc1ncnc2c1ncn2[C@@H]1O[C@H](CO)[C@@H](O)[C@H]1O)c1ccccc1 [Example 75, N^6-[(R)-1-(phenyl)-propyl]-adenosine]		Sleep prolonging rate (%) (oral, 2.5 mg/kg, 38 mg/kg sodium pentobarbital 60 min later): 183%
CCOC(=O)[C@H](Cc1c[nH]c2ccccc12)Nc1ncnc2c1ncn2[C@@H]1O[C@H](CO)C(O)C1O (stereo partly shown) [Example 113, N-(6-adenosine)-(L)-tryptophan ethyl ester]	7	
COc1cc(CNc2ncnc3c2ncn3[C@H]2C[C@@H](OC(C)=O)[C@@H](COC(C)=O)O2)ccc1O [Example 148, N^6-(3-methoxy-4-hydroxy-benzyl)-2′-deoxy-3′,5′-diacetyl adenosine]	71	
CC(C(O)c1ccccc1)N(C)c1ncnc2c1ncn2[C@@H]1O[C@H](CO)C(O)C1O (mixture of isomers) [Example 137, N^6-methyl-N^6-[(±)-2-(1-hydroxy-1-phenyl)-propyl]-adenosine]	92	
CC[C@@H](Nc1ncnc2c1ncn2[C@@H]1O[C@H](COC(C)=O)C(O)C1O)c1ccccc1 (stereo partly drawn) [Example 77, N^6-[(R)-1-(phenyl)-propyl]-adenosine-5′-acetate]	590	
CN(Cc1ccccc1)c1ncnc2c1ncn2[C@@H]1O[C@H](CO)[C@@H](O)[C@H]1O [Example 133, N^6-methyl-N^6-benzyl-adenosine]	27	
CC(Nc1ncnc2c1ncn2[C@@H]1O[C@H](CO)[C@@H](O)[C@H]1O)c1ccc(O)cc1 (mixture of isomers) [Example 47, N^6-[(±)-1-(4-hydroxyphenyl)-ethyl]-adenosine]	50	
CN(c1ncnc2c1ncn2[C@@H]1O[C@H](CO)[C@@H](O)[C@H]1O)C1CCCCC1 [Example 141, N^6-methyl-N^6-cyclohexyl-adenosine]	55	
Cc1ccc([C@@H](C)Nc2ncnc3c2ncn3[C@@H]2O[C@H](CO)[C@@H](O)[C@H]2O)cc1 [Example 59, N^6-[(R)-1-(4-methylphenyl)-ethyl]-adenosine]	99	
OC[C@H]1O[C@@H](n2cnc3c(N[C@@H](c4ccccc4)[C@H](O)c4ccccc4)ncnc32)C(O)C1O (stereo partly drawn) [Example 100, N^6-{(1R,2S)-[2-hydroxy-(1,2-diphenyl)]-ethyl}-adenosine]	38	
